Entries after “also recorded” stand apart in the source; their conditions may differ.

In this assay the test system is IL-12. The experiment in a line: IL-12 inhibitory assay in IFNγ-primed, LPS-stimulated human PBMC (ELISA). It counts as cell-based. The note with it: human PBMC primed with IFNγ, supernatants 20 h later, FIG. 1. Here is the method:
This invention is based in part on the unexpected discovery that specific kavalactones inhibit production of IL-12, whose overproduction is implicated in a number of diseases and disease symptoms. The IL-12 inhibitory activity of six major kavalactones (e.g., desmethoxyyangonin, dihydrokawain, dihydromethysticin, kawain, methysticin, and yangonin) was measured using a cellular assay for determination of IL-12 cytokine inhibition. […] Thus, compositions containing one of the three active kavalactones, kawain, dihydrokawain, dihydromethysticin, or a combination thereof, are useful for treating disease or disease symptoms related to IL-12 overproduction.
Referring back to FIG. 1, six kavalactones were tested in an IL-12 inhibitory assay as follows: Lipopolysaccharide (LPS, Serratia marscencens) was obtained from Sigma (St. Louis, Mo.). Human recombinant IFNg was purchased from Boehringer Mannheim. (Mannheim, Germany). Human peripheral blood mononuclear cells were isolated by centrifugation using Ficall-Paque (Pharmacia Biotech, Uppsala, Sweden) and prepared in RPMI medium supplemented with 10% FCS and antibiotics in a 96-well plate with 1×10^6 cells/well. Human PBMC were primed with IFNγ (30 U/mL) for 16 h and then stimulated with […] of LPS in the presence of different concentrations of test compound. Cell-free supernatants were taken 20 h later for measurement of cytokines. Cell viability was assessed using the bioreduction of MTS [3-(4,5-dimethylthiazol-2-yl)-5-(3-carboxymethoxyphenyl)-2-(4-sulfophenyl)-2H-tetrazolium] (Promega, Madison, Wis.). Cell survival was estimated as the ratio of the absorbance in compound-treated groups versus compound-free control. Human IL-12 was assayed using ELISA kits (Endogen, Cambridge, Mass.), essentially according to the manufacturer's instructions. IL-12 inhibition can also be measured by other methods (e.g., in vivo, in vitro, animal models) of assaying for enzyme inhibition activity.
(In an ELISA, binding on a coated surface is turned into a signal by an enzyme label.)
Take `COC1=CC(=O)O[C@@H](CCc2ccccc2)C1` [dihydrokawain]: the IL-12 inhibitory activity result was “much higher IL-12 inhibitory activity relative to the other kavalactones; also recorded: exhibit IL-12 inhibitory activity”.

Regarding `COC1=CC(=O)O[C@@H](CCc2ccc3c(c2)OCO3)C1` [dihydromethysticin], the IL-12 inhibitory activity entry is “much higher IL-12 inhibitory activity relative to the other kavalactones; also recorded: exhibit IL-12 inhibitory activity”.

Turning to `COC1=CC(=O)O[C@@H](/C=C/c2ccccc2)C1` [kawain], the IL-12 inhibitory activity result is given as “much higher IL-12 inhibitory activity relative to the other kavalactones; also recorded: exhibit IL-12 inhibitory activity”.

Values taken from patent publication US20030181515A1, “Methods of using kavalactone compositions” (Kava Pharmaceuticals, Inc., a Delaware corporation, priority 2001, published 2003).
